Read-outs that look alike come from different tables or passages of the source.
Columns and labels:
HDF cells = assay: MTT cell viability assay, healthy human dermal fibroblasts; type: cell-based; details: for Cell viability inhibition, HDF (result in words): 10–100 μM, 6, 24 and 48 h; for IC50: Homo sapiens, HDF, 24 h
Experimental: (§1) Three cell types were studied. The HT-144 and SKMEL-28 cell lines derived from human melanoma and were obtained from the American Tissue Culture Collection (ATCC). They were grown in Mc Coy’s 5a modified and minimal essential medium (MEM) respectively, supplemented with 10% (v/v) fetal bovine serum (FBS) and 1% (v/v) antibiotic (penicillin, streptomycin) at 37 °C in a humidified atmosphere of 5% CO2. Human dermal fibroblasts (HDF) were isolated from skin biopsies of healthy subjects. Briefly, the hypodermis was mechanically removed and explants were cut in 1 mm^2 pieces. Skin fragments were then cultivated in Dulbecco’s minimal essential medium (DMEM) supplemented with 20% FBS, 1% antibiotic and 1% fungizone at 37 °C in a humidified atmosphere of 5% CO2. The medium was changed every two days. After 4 weeks of cultures, fibroblasts have covered all the surface of the culture dishes and were trypsined. Cells were grown in DMEM containing 10% FBS and 1% antibiotic at 37 °C in a humidified atmosphere of 5% CO2. Subcultures 3 to 9 were used in this study.
(§2) The three cell types were seeded into 96-well plates (0.32 cm^2, 5500 cells in 200 μL medium par well). After 24 h of culture, the cells were treated in triplicate wells with different bio-produced stilbenes and synthetic resveratrol (≥99%, Sigma-Aldrich, Saint-Quentin Fallavier, France) amounts and treatment times. Compounds were dissolved in ethanol at a 5 × 10^−2 M final concentration and stored at −20 °C. Compounds were diluted in culture media, with or without FBS, to the desired final concentration. All control and treated cells received a maximal volume of 0.1% (v/v) of ethanol.
(§3) Cell viability was tested by the MTT [3-(4,5-dimethyl thiazol-2yl)-2,5-diphenyltetrazolium bromide] assay (Sigma-Aldrich). After MTT addition (0.5 mg/mL), the plates were incubated for 3 h at 37 °C in a humidified atmosphere of 5% CO2. At the end of the incubation period, the medium was removed and the converted dye was solubilized with dimethyl sulfoxide (DMSO). Absorbance of the converted dye was measured at a wavelength of 560 nm using a plate reader Tecan F200 Pro (Tecan, Lyon, France). The 50% inhibitory concentration (IC50) for each bio-produced stilbene was defined as the concentration producing 50% decrease in cell growth.

SKMEL-28 cells = assay: MTT cell viability assay, SKMEL-28 melanoma cells; type: cell-based, human; details: for Cell viability inhibition, SKMEL-28 (result in words): 10–100 μM, 6, 24 and 48 h; for IC50: Homo sapiens, SK-MEL-28, 24 h
Experimental: as §1, §2, §3

HT-144 cells = assay: MTT cell viability assay, HT-144 melanoma cells; type: cell-based, human; details: for Cell viability inhibition, HT-144 (result in words): 10–100 μM, 6, 24 and 48 h; for IC50: Homo sapiens, HT-144, 24 h
Experimental: as §1, §2, §3

[1] = with FBS (10% FBS), read-out: IC50 HDF with FBS
[2] = without FBS (0% FBS), read-out: IC50 HDF without FBS
[3] = with FBS (10% FBS), read-out: IC50 SKMEL-28 with FBS
[4] = without FBS (0% FBS), read-out: IC50 SKMEL-28 without FBS
[5] = with FBS (10% FBS), read-out: IC50 HT-144 with FBS
[6] = without FBS (0% FBS), read-out: IC50 HT-144 without FBS

Row | SMILES | IC50 (SKMEL-28 cells; [3]) [µM] | IC50 (SKMEL-28 cells; [4]) [µM] | IC50 (HT-144 cells; [5]) [µM] | IC50 (HT-144 cells; [6]) [µM] | Cell viability inhibition, HDF (result in words) (HDF cells) | IC50 (HDF cells; [1]) [µM] | IC50 (HDF cells; [2]) [µM] | Cell viability inhibition, SKMEL-28 (result in words) (SKMEL-28 cells) | Cell viability inhibition, HT-144 (result in words) (HT-144 cells)
1 | Oc1ccc(C(O)C(Oc2ccc(C=Cc3cc(O)cc(O)c3)cc2)c2cc(O)cc(O)c2)cc1 (stereo not drawn) [Dimer (6)] | > 100 | 23 ± 0.3 | > 100 | 24.9 ± 0.62 | significant cell viability inhibition | > 100 | 22.2 ± 2.61 | significant cell viability inhibition | significant cell viability inhibition
2 | Oc1ccc(/C=C/c2cc(O)cc(O)c2)cc1 [Trans-resveratrol, trans-resveratrol] | > 100 | > 100 | 93.3 ± 7.6 | > 100 |  | > 100 | > 100 |  | 
3 | Oc1ccc(/C=C/c2cc(O)cc(O)c2)cc1 [synthetic resveratrol, trans-resveratrol, reference compound] |  |  |  |  | dose-dependent decrease in cell growth |  |  | dose-dependent decrease in cell growth | dose-dependent decrease in cell growth

Now from value to molecule, other results behind:

Row | IC50 (SKMEL-28 cells; [3]) [µM] | IC50 (SKMEL-28 cells; [4]) [µM] | IC50 (HT-144 cells; [5]) [µM] | IC50 (HT-144 cells; [6]) [µM] | SMILES | Cell viability inhibition, HDF (result in words) (HDF cells) | IC50 (HDF cells; [1]) [µM] | IC50 (HDF cells; [2]) [µM] | Cell viability inhibition, SKMEL-28 (result in words) (SKMEL-28 cells) | Cell viability inhibition, HT-144 (result in words) (HT-144 cells)
4 | > 100 | > 100 | > 100 | > 100 | Oc1ccc([C@@H]2c3c(O)cc(O)cc3[C@H]3[C@H](c4ccc(O)cc4)c4c(O)cc(O)cc4[C@@H]23)cc1 [Pallidol, pallidol] |  | > 100 | > 100 |  | 
5 | 86.6 ± 2.59 | 15.9 ± 0.44 | 82.3 ± 3.23 | 17.58 ± 0.09 | Oc1ccc(/C=C/c2cc(O)cc3c2[C@@H](c2cc(O)cc(O)c2)[C@H](c2ccc(O)cc2)O3)cc1 [ɛ-viniferin, ε-viniferin] | significant cell viability inhibition | 91.9 ± 11.3 | 16.4 ± 1.19 | significant cell viability inhibition | significant cell viability inhibition

From PMC6155302, “Anti-Cancer Activity of Resveratrol and Derivatives Produced by Grapevine Cell Suspensions in a 14 L Stirred Bioreactor” (Molecules : A Journal of Synthetic Chemistry and Natural …, 2017)
